Measured values: ChEMBL document CHEMBL2429758, “3-aroylmethylene-2,3,6,7-tetrahydro-1H-pyrazino[2,1-a]isoquinolin-4(11bH)-ones as potent Nrf2/ARE inducers in human cancer cells and AOM-DSS treated mice” (J Med Chem, 2013)
Calls of active or inactive are those of the source. The rule behind the calls is not given here.

Assays:
[1] = biological target: T1, Nuclear factor erythroid 2-related factor 2 (Homo sapiens) (UniProt Q16236); test: Induction of Nrf2-mediated ARE activity in human HepG2-ARE-C8 cells at 10 uM after 12 hrs by luciferase reporter gene assay relative to control; assay type: cell-based
T1 sequence (whole entry): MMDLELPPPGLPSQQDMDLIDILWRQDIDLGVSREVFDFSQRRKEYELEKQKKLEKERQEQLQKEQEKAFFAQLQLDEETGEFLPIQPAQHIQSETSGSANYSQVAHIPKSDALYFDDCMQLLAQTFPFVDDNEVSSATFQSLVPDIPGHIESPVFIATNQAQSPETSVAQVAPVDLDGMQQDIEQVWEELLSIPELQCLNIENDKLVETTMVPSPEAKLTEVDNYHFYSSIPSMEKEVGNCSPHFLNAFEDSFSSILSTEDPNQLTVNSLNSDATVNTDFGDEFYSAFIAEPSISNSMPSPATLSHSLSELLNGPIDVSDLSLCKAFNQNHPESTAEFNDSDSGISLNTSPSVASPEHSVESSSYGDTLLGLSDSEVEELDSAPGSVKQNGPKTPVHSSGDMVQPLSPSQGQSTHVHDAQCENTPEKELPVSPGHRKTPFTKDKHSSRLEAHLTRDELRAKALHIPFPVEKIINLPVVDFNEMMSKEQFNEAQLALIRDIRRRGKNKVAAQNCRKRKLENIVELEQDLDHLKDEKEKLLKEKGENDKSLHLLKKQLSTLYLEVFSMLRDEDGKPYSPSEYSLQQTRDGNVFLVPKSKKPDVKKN

[2] = biological target: T1, Nuclear factor erythroid 2-related factor 2 (Homo sapiens); test: Induction of Nrf2-mediated ARE activity in human HepG2-ARE-C8 cells at 5 uM after 12 hrs by luciferase reporter gene assay relative to control; assay type: cell-based
[3] = biological target: T1, Nuclear factor erythroid 2-related factor 2 (Homo sapiens); test: Induction of Nrf2-mediated ARE activity in human HepG2-ARE-C8 cells at 0.01 uM after 12 hrs by luciferase reporter gene assay relative to control; assay type: cell-based
[4] = biological target: T1, Nuclear factor erythroid 2-related factor 2 (Homo sapiens); test: Induction of Nrf2-mediated ARE activity in human HepG2-ARE-C8 cells at 1 uM after 12 hrs by luciferase reporter gene assay relative to control; assay type: cell-based
[5] = biological target: T1, Nuclear factor erythroid 2-related factor 2 (Homo sapiens); test: Induction of Nrf2-mediated ARE activity in human HepG2-ARE-C8 cells at 0.1 uM after 12 hrs by luciferase reporter gene assay relative to control; assay type: cell-based
[6] = tested on: HCT-116; test: Induction of NQO1 expression in human HCT116 cells up to 24 hrs by Western blot analysis; assay type: functional, cell-based
[7] = tested on: HCT-116; test: Induction of HO-1 expression in human HCT116 cells up to 8 hrs by Western blot analysis; assay type: functional, cell-based
[8] = tested on: Mus musculus; test: Chemopreventive activity in azoxymethane dextran sodium sulfate C57BL/6 mouse model assessed as increase of WBC level at 50 mg/kg/day treated with food measured after 130 days (reference value: 5.33 +/- 1.34 10^9/L); assay type: functional
[9] = tested on: Mus musculus; test: Toxicity in azoxymethane dextran sodium sulfate C57BL/6 mouse model assessed as change body weight at 50 mg/kg/day treated with food measured after 130 days; assay type: organism-based; conditions: in vivo, 3120 h
[10] = tested on: Mus musculus; test: Antiinflammatory activity in azoxymethane dextran sodium sulfate C57BL/6 mouse model assessed as reduction of IL-1beta expression at 50 mg/kg/day treated with food measured after 130 days by immunohistochemical analysis; assay type: functional, organism-based
[11] = tested on: Mus musculus; test: Chemopreventive activity in azoxymethane dextran sodium sulfate C57BL/6 mouse model assessed as reduction of tumor burden at 50 mg/kg/day treated with food measured after 130 days; assay type: functional, organism-based
[12] = tested on: Mus musculus; test: Chemopreventive activity in azoxymethane dextran sodium sulfate C57BL/6 mouse model assessed as increase of lymphocyte ratio at 50 mg/kg/day treated with food measured after 130 days (reference value: 87.75 +/- 2.16%); assay type: functional
[13] = biological target: T1, Nuclear factor erythroid 2-related factor 2 (Homo sapiens); test: Induction of Nrf2-mediated ARE activity in human HepG2-ARE-C8 cells after 12 hrs by luciferase reporter gene assay; assay type: cell-based
[14] = tested on: Mus musculus; test: Chemopreventive activity in azoxymethane dextran sodium sulfate C57BL/6 mouse model assessed as reduction of multiplicity of tumor at 50 mg/kg/day treated with food measured after 130 days; assay type: functional, organism-based
[15] = tested on: Mus musculus; test: Chemopreventive activity in azoxymethane dextran sodium sulfate C57BL/6 mouse model assessed as reduction of length of colon at 50 mg/kg/day treated with food measured after 130 days (reference value: 5.62 +/- 0.69 centimeter); assay type: functional
[16] = tested on: Mus musculus; test: Chemopreventive activity in azoxymethane dextran sodium sulfate C57BL/6 mouse model assessed as reduction of neutrophils ratio at 50 mg/kg/day treated with food measured after 130 days (reference value: 12.73 +/- 1.65%); assay type: functional; set-up: scale not given: the % may be the effect or the level left
[17] = tested on: Mus musculus; test: Chemopreventive activity in azoxymethane dextran sodium sulfate C57BL/6 mouse model assessed as reduction of average size of tumor at 50 mg/kg/day treated with food measured after 130 days; assay type: functional
[18] = tested on: HCT-116; test: Induction of NQO1 expression in human HCT116 cells at 10 uM by Western blot analysis; assay type: functional, cell-based; conditions: TDE = time-dependent effect
[19] = tested on: HCT-116; test: Induction of HO-1 expression in human HCT116 cells at 10 uM by Western blot analysis; assay type: functional, cell-based; conditions: TDE = time-dependent effect
[20] = tested on: Mus musculus; test: Chemopreventive activity in azoxymethane dextran sodium sulfate C57BL/6 mouse model assessed as reduction of tumor incidence at 50 mg/kg/day treated with food measured after 130 days; assay type: functional; set-up: scale not given: the % may be the effect or the level left
[21] = tested on: Mus musculus; test: Chemopreventive activity in azoxymethane dextran sodium sulfate C57BL/6 mouse model assessed as reduction of developed dysplasia at 50 mg/kg/day treated with food measured after 130 days by hematoxylin and eosin staining; assay type: functional, organism-based
[22] = tested on: Mus musculus; test: Chemopreventive activity in azoxymethane dextran sodium sulfate C57BL/6 mouse model assessed as induction of Nrf2 nuclear translocation at 50 mg/kg/day treated with food measured after 130 days immunofluorescence analysis; assay type: functional, organism-based
[23] = biological target: T1, Nuclear factor erythroid 2-related factor 2 (Homo sapiens); test: Induction of Nrf2 nuclear translocation in human HCT116 cells at 10 uM by Western blot analysis; assay type: cell-based; conditions: HCT-116
[24] = tested on: Mus musculus; test: Antiinflammatory activity in azoxymethane dextran sodium sulfate C57BL/6 mouse model assessed as reduction of IL-6 expression at 50 mg/kg/day treated with food measured after 130 days by immunohistochemical analysis; assay type: functional, organism-based
[25] = tested on: Mus musculus; test: Toxicity in azoxymethane dextran sodium sulfate C57BL/6 mouse model assessed as sign of toxicity at 50 mg/kg/day treated with food measured after 130 days; assay type: organism-based; conditions: in vivo, 3120 h
[26] = biological target: T1, Nuclear factor erythroid 2-related factor 2 (Homo sapiens); test: Induction of Nrf2-mediated ARE activity in human HepG2-ARE-C8 cells at 80 uM after 12 hrs by luciferase reporter gene assay relative to control; assay type: cell-based
[27] = biological target: T1, Nuclear factor erythroid 2-related factor 2 (Homo sapiens); test: Induction of Nrf2-mediated ARE activity in human HepG2-ARE-C8 cells at 40 uM after 12 hrs by luciferase reporter gene assay relative to control; assay type: cell-based
[28] = biological target: T1, Nuclear factor erythroid 2-related factor 2 (Homo sapiens); test: Induction of Nrf2-mediated ARE activity in human HepG2-ARE-C8 cells at 20 uM after 12 hrs by luciferase reporter gene assay relative to control; assay type: cell-based

SMILES | fold change (FC) [1] | fold change (FC) [2] | fold change (FC) [3] | fold change (FC) [4] | fold change (FC) [5] | Activity [6] | Activity [7] | fold change (FC) [28] | also measured
O=C(/C=C1\NCC2c3ccccc3CCN2C1=O)c1cccc(F)c1 (stereo unspecified) | 33 | 29.1 | 2.18 | 9.99 | 3.89 | Dose-dependent effect | Dose-dependent effect |  | 
O=C(/C=C1\NCC2c3ccccc3CCN2C1=O)c1ccccc1 (stereo unspecified) | 26.9 | 18.9 | 2 | 9.51 | 5.44 | Dose-dependent effect | Dose-dependent effect |  | Activity [8]: 5.67 ×10⁹ /L; Activity [9]: Non-toxic; inhibition [10]: Active; Activity [11]: Active; Activity [12]: 88.15%; Activity [13]: Dose-dependent effect; Activity [14]: Active; Activity [15]: 4.59 cm; Activity [16]: 12.39%; Activity [17]: 2.2 mm; Activity [18]: tde; Activity [19]: tde; Activity [20]: 50%; Activity [21]: Active; Activity [22]: Active; Activity [23]: Active; inhibition [24]: Active; Activity [25]: Non-toxic
CC(C)(C)c1cc(O)ccc1O | 1.5 | 1.04 |  |  |  |  |  | 2.06 | fold change (FC) [26]: 5.21; fold change (FC) [27]: 3.24
C[S+]([O-])CCCCN=C=S (stereo unspecified) | 8.35 | 5.52 |  | 2.7 |  |  |  | 18.1 | 
